Three compounds from patent US20190365705A1, “TOPICAL TOCOTRIENOL COMPOSITIONS AND METHODS OF INCREASING SKIN STEM CELLS” (OHIO STATE INNOVATION FOUNDATION, priority 2017, published 2019) can be followed below.

{6FAM} = 6-carboxyfluorescein label

In one data set the test system is β-catenin. In words: Topical IWR-1 pre-treatment of adult murine skin followed by TRF. It is filed as in vivo, C57B1/6 mice. Here is the method: Mice were randomly (www.random.org) divided into different groups as indicated in corresponding figure legends. The dorsal skin was shaved and hair was depilated using Nair® two days before experiments. TRF or its placebo (PBO) was applied topically at a dose of 5 mg/cm^2 skin, thrice per week. During the procedure, mice were anesthetized by low-dose isoflurane inhalation. Digital photographs were collected (Canon PowerShot S6 and Dermascope from Dino-lite ProII). In some experiments, to inhibit β-catenin expression, IWR-1 (Sigma; I0161) was used. A 10% DMSO stock IWR-1 solution was prepared and diluted with glycerol to a final concentration of 2 μg per 0.5 cm^2 of skin. This solution was applied topically on the dorsal skin of C57B1/6 mice at a dose of 12.5 μL/0.5 cm^2 for four consecutive days of IWR-1 or vehicle followed by 7 consecutive days of […] for one hour under occlusive dressing (Tegaderm™, 3M, St. Paul, Minn.).
Detection of anagen induction. Promotion of hair growth was evaluated by observing the skin color which is indicative of the telogen-to-anagen conversion.^50 Skin, collected and 8 μm formalin-fixed paraffin-embedded skin sections, were deparaffinized and stained with hematoxylin & eosin. Mosaic images at 20× were collected using Axioscanner (Zeiss Microscopy). From histological characterization of the sections, anagen follicles in dermis and subcutis layers were enumerated.
Histology, immunohistochemistry (IHC) and immunocytochemistry (ICC). Histology of skin was performed from 8 μm thick paraffin sections after staining with Hematoxylin and Eosin (H&E). Immunostaining of Ki67 (Abcam, ab15580; 1:400), LGR6 (Abcam, ab126747; 1:100), CD34 (Abcam, ab8158; 1:200), OCT4 (Abcam, ab19857; 1:200), SOX9 (Abcam, ab185230; 1:1000), KLF4 (Abcam; ab151733, 1:200), c-MYC (Abcam; ab32072, 1:200), NANOG (Abcam; ab80892, 1:200), K17 (Abcam, ab53707; 1:100), K15 (Abcam, ab52816; 1:100), Claudin (Invitrogen, RB9209P; 1:200), Occludin (Invitrogen, 711500; 1:200), ZO-1(Invitrogen, 617300; 1:200), ZO-2 (Invitrogen, 389100; 1:200), E-cadherin (Life Technologies, 131900; 1:200) and β-catenin (Abcam, ab22656; 1:200) were performed on paraffin and cryosections of skin sample using specific antibodies as indicated.^57 For immunocytochemistry, cells were fixed with cell fixation buffer (ebiosciences; 00-8222-49) and stained for respective antibodies. Specificity of the antibodies were validated using rabbit isotype control (Abcam, ab27478; 1:400), rat isotype control (Abcam, ab18412; 1:200), and mouse isotype control (Abcam, ab18443; 1:200) (FIG. 13). Briefly, OCT embedded tissue were cryosectioned (10 μm), fixed with cold acetone, blocked with 10% normal goat serum and incubated with specific antibodies overnight at 4° C. Signal was visualized by subsequent incubation with either biotinylated-tagged for DAB staining and fluorescence-tagged appropriate secondary antibodies (Alexa 488-tagged α-mouse, 1:200; Alexa 568-tagged α-mouse, 1:200; Alexa 488-tagged α-rabbit, 1:200; Alexa 568-tagged α-rabbit, 1:200; Alexa 568-tagged α-rat, 1:200).

The test system of a further data set is β-catenin-Tcf3 complex. In words: Tcf3 decoy transfection of keratinocytes with tocotrienol treatment (quantitative immunocytochemistry). It is filed as cell-based, human. The following applies: 24 h. Here is the method: (§1) Cell and cell culture. Immortalized human keratinocytes (HaCaT) were grown in Dulbecco's low-glucose modified Eagle's medium (Life Technologies) as described previously.^55 Cells were maintained in a standard culture incubator with humidified air containing 5% CO2 at 37° C.
Synthesis of Tcf3 decoy and control double-stranded oligodeoxynucleotides. Tcf3 decoy and control double-stranded oligodeoxynucleotides were prepared as described previously.^22 Briefly, FAM labelled phosphorothioate oligodeoxynucleotides were synthesized and purified by Sigma-Aldrich. The oligonucleotides sequence used were as follow: Tcf3 decoy sense, 5′-6FAM-CCGGGCTTTGATCTTTGC-3′ (SEQ ID NO:1); Tcf3 decoy anti-sense, 5′-6FAM-GCAAAGATCAAAGCCCGG-3′ (SEQ ID NO:2); Tcf3 scramble sense, 5′-6FAM-CCGGGTCAGTTCTTTTGC -3′ (SEQ ID NO:3); Tcf3 scramble anti-sense, 5′-6FAM-GCAAAAGAACTGACCCGG -3′ (SEQ ID NO:4). […]
Histology, immunohistochemistry (IHC) and immunocytochemistry (ICC). […] Signal was visualized by subsequent incubation with either biotinylated-tagged for DAB staining and fluorescence-tagged appropriate secondary antibodies (Alexa 488-tagged α-mouse, 1:200; Alexa 568-tagged α-mouse, 1:200; Alexa 488-tagged α-rabbit, 1:200; Alexa 568-tagged α-rabbit, 1:200; Alexa 568-tagged α-rat, 1:200).

The subject of the next data set is β-catenin and Tcf3. Description: Proximity ligation assay (PLA) for β-catenin-Tcf3 in keratinocytes. It is filed as cell-based, human. The note with it: 1 μM, 24 h. Here is the method:
as §1
In situ proximity ligation assay (PLA). PLA was performed as described previously using Sigma Duolink® in situ red starter kit for […] (DUO92105) following manufacturer's instructions except that the incubation time was prolonged to 90 minutes.^58 The assay was performed using rabbit Tcf3 (Abcam, ab69999; 1:50) and mouse β-catenin (Abcam, ab22656; 1:200) antibodies. Slides were imaged using Olympus FV 1000 spectral confocal microscope.

In data set [1] the test system is human HaCaT keratinocytes. In words: E-cadherin expression and β-catenin nuclear translocation in HaCaT keratinocytes (immunocytochemistry). It is filed as cell-based. The following applies: 24 h. How it is done: as §1
Histology, immunohistochemistry (IHC) and immunocytochemistry (ICC). Histology of skin was performed from 8 μm thick paraffin sections after staining with Hematoxylin and Eosin (H&E). […] Signal was visualized by subsequent incubation with either biotinylated-tagged for DAB staining and fluorescence-tagged appropriate secondary antibodies (Alexa 488-tagged α-mouse, 1:200; Alexa 568-tagged α-mouse, 1:200; Alexa 488-tagged α-rabbit, 1:200; Alexa 568-tagged α-rabbit, 1:200; Alexa 568-tagged α-rat, 1:200).

As to `O=C(Nc1cccc2cccnc12)c1ccc(N2C(=O)[C@@H]3[C@H](C2=O)[C@@H]2C=C[C@H]3C2)cc1` [IWR-1], in the data set on β-catenin, the “TRF-induced translocation of β-catenin to the nucleus” value is “inhibited TRF-induced translocation of β-catenin to the nucleus” and the “lowering of E-cadherin in response to TRF” value is on record as “did not influence”. Further, the “epidermal β-catenin” value in the data set on β-catenin (TRF-treated adult skin) is on record as “effective in degrading epidermal β-catenin”. In the data set with β-catenin (day 11 (day 7 post TRF application), vs vehicle), the “number of anagen hair follicles induced by topical TRF” value is “significantly decreased”. The “TRF-stimulated keratinocyte proliferation (Ki67+ cells)” value in the data set with β-catenin (vs vehicle DMSO) is “eliminating the effect of TRF on stimulating keratinocytes proliferation”.

On to “Tcf3 decoy: FAM labelled phosphorothioate double-stranded oligodeoxynucleotide based on Tcf3 binding consensus sequence (SEQ ID NO:1/2) (sense CCGGGCTTTGATCTTTGC; antisense GCAAAGATCAAAGCCCGG; DNA, all phosphorothioate, 5' {6FAM}, methylation of C not given here)”, for which the “effect on tocotrienol-induced stemness and pluripotency factors” value with β-catenin-Tcf3 complex (decoy 0.1 μM vs scramble 0.1 μM, tocotrienol 1 μM) is given as “markedly blunted”.

In the case of α-tocotrienol [pure tocotrienol], the “stemness and pluripotency factors (SOX9, OCT4, K17, K15, KLF4, c-MYC, NANOG) in keratinocytes” value in the data set on β-catenin-Tcf3 complex (pure tocotrienol 1 μM) is recorded as “induction of stemness as well as pluripotency factors”. Also, the “interaction of β-catenin and Tcf3 (PLA)” value with β-catenin and Tcf3 is “interaction of β-catenin and Tcf3 in the nucleus”. In addition, the “membrane E-cadherin expression” value in data set [1] (1 μM) is listed as “sharp decrease”. Also, in data set [1] (pure tocotrienol 1 μM), the “nuclear translocation of β-catenin” value is reported as “nuclear translocation of β-catenin”.
